Read-outs that look alike come from different tables or passages of the source.
Legend:
[1] = set-up: method as in PMID 36629048; conditions: mice, intraperitoneal 5 mg/kg, plasma, non-compartmental WinNonlin 7.0 on concentrations from previous publication; cited from earlier work
[2] = Pharmacokinetic study in rats after intraperitoneal injection (UHPLC-MS/MS); assay type: in vivo, Sprague Dawley rats; conditions: for Cmax / AUC(0-inf) / AUC(0-t) / Tmax / half-life: ip
Method: (§1) The validated UPLC-MS/MS method was successfully applied to the pharmacokinetic study and tissue distribution in rats after an intraperitoneal injection of 84-B10 (0.36 mg/kg). […] Two hours later, the plasma concentration tended to flatten out, with a concentration of approximately 10 ng/mL. AUC0–t and AUC0–∞ were 269 and 278 h*ng/mL, respectively. After an intraperitoneal administration, 84-B10 could be detected in different tissues, indicating a wide distribution (Figure 4). The compound rapidly distributed and reached maximum concentration at 0.033 h for most tissues. […] In most tissues, 84-B10 was eliminated at 8 h.
84-B10 was determined and quantified by ExionLC system coupled with SCIEX 4500 triple quadrupole mass spectrometers (SCIEX, Framingham, MA, USA). A phenyl HPLC column (50 × 2.1 mm, 3 μm) (YMC, Kyoto, Japan) was used for separation. Methanol was selected as the organic phase as it could better reflect the π-π selectivity between benzene and the chromatographic column. An amount of 5 mM ammonium formate was added into water to adjust the dissociation of 84-B10 and to improve the chromatographic peak. The flow rate was 0.3 mL/min with gradient elution (Table 8).
(§2) After one week of adaptive feeding, pharmacokinetic experiments were conducted. 84-B10 (0.36 mg/kg) solution was injected and blood was collected into tubes containing heparin sodium at 0.033, 0.083, 0.25, 0.5, 1, 2, 4, 6 and 8 h after administration. Blood was centrifuged at 8000 rpm for 5 min to obtain the plasma. The tissue was accurately weighed and ground with pure water (w:v, 1:5) to obtain homogenate. An amount of 50 µL of biological matrix was precipitated with 200 μL of methanol containing IS (Ginkgolide J, 2 μg/mL). After vortexing for 5 min, the samples were centrifuged at 12,000 rpm for 5 min and the supernatant was taken for injection.

Lon protease 1 (LONP1) = target: Lon protease 1 (LONP1); set-up: method as in PMID 36629048; conditions: cited from earlier work
[3] = tested on: cisplatin-induced acute kidney injury; set-up: method as in PMID 36403736, PMID 36629048; conditions: mice, 5 mg/kg; cited from earlier work
LonP1 = tested on: LonP1; set-up: method as in PMID 36629048; conditions: cited from earlier work
[4] = tested on: renal fibrosis induced by unilateral ureteral obstruction (UUO) or unilateral ischemia reperfusion injury (UIRI); set-up: method as in PMID 36403736, PMID 36629048; conditions: mice, dose of 0.5–7.5 mg/kg; cited from earlier work
[5] = Stability of 84-B10 in rat plasma under different storage conditions; assay type: in vitro ADME; conditions: n = 6
Method: The method was validated according to the Bioanalytical Method Validation Guidance for Industry issued by Food and Drug Administration of USA in 2018. In short, blank plasma from six different rats was collected and spiked with or without LLOQ working solutions to evaluate the sensitivity. The linear least square method was used to fit the standard curve, and the weighting coefficient was 1/x^2. The precision and accuracy were evaluated by analyzing three different concentrations of quality control samples in three consecutive days. Blank plasma was first precipitated with methanol and then spiked with QC working solutions into supernatant. The peak area was compared with QC samples to estimate the extraction recovery. Alternatively, blank plasma was replaced with ultrapure water and mixed with QC working solutions. The matrix effect was then evaluated. For stability evaluation, different concentrations of QC samples were stored at room temperature for 2 h, frozen–thawed for three cycles, or stored in an auto-sampler (extracted samples, 4 °C) for 24 h and then analyzed.

[6] = Tissue distribution in rats after intraperitoneal injection; assay type: in vivo, Sprague Dawley rats; conditions: intraperitoneal 0.36 mg/kg
Method: as §1, §2

[7] = Sprague Dawley, rat, plasma, single intraperitoneal injection 0.36 mg/kg, female, mean ± SD
[8] = Sprague Dawley, rat, plasma, single intraperitoneal injection 0.36 mg/kg, male, mean ± SD
[9] = both sexes, Sprague Dawley, rat, plasma, single intraperitoneal injection 0.36 mg/kg, total (male and female), mean ± SD
[10] = extracted rat plasma samples, autosampler 4 °C for 24 h, spiked 3 ng/mL
[11] = extracted rat plasma samples, autosampler 4 °C for 24 h, spiked 300 ng/mL
[12] = extracted rat plasma samples, autosampler 4 °C for 24 h, spiked 750 ng/mL
[13] = rat plasma, room temperature for 2 h, spiked 3 ng/mL
[14] = rat plasma, room temperature for 2 h, spiked 300 ng/mL
[15] = rat plasma, room temperature for 2 h, spiked 750 ng/mL
[16] = rat plasma, three freeze–thaw cycles, spiked 3 ng/mL
[17] = rat plasma, three freeze–thaw cycles, spiked 300 ng/mL
[18] = rat plasma, three freeze–thaw cycles, spiked 750 ng/mL

## COc1ccc(Oc2ccc(C(F)(F)F)cc2NC(=O)CC(CC(=O)O)c2ccccc2)cc1 (stereo not shown) [84-B10, 5-[[2-(4-methoxyphenoxy)-5-(trifluoromethyl)phenyl]amino]-5-oxo-3-phenylpentanoic acid]
[1]
  AUC0→t, observed: 1327 ng·h/mL
  Cl, observed: 56.8 mL/min/kg
  Cmax, observed: 2038 ng/mL
  Vd, observed: 11.20 L/kg
[2]; Sprague Dawley, rat, intraperitoneal 0.36 mg/kg, plasma, non-compartmental WinNonlin 7.0, read-out: Cmax, observed
  Cmax: 257 ng/mL
[2]; Sprague Dawley, rat, plasma, intraperitoneal 0.36 mg/kg, 2 h after injection, curve flattens out, read-out: plasma concentration two hours later
  concentration at 2 h: ~10 ng/mL
[2]; [7]
  AUC(0-inf): 241 ± 29 ng·h/mL
  AUC(0-t): 233 ± 27 ng·h/mL
  Tmax: 8.4 ± 6 min
  half-life: 25.8 ± 2.4 min
[2]; Sprague Dawley, rat, plasma, single intraperitoneal injection 0.36 mg/kg, female, mean ± SD, read-out: Cmax
  Cmax: 231 ± 2.08 ng/mL
[2]; [8]
  AUC(0-inf): 315 ± 31 ng·h/mL
  AUC(0-t): 305 ± 30.2 ng·h/mL
  Tmax: 11.4 ± 6 min
  half-life: 27 ± 1.2 min
[2]; Sprague Dawley, rat, plasma, single intraperitoneal injection 0.36 mg/kg, male, mean ± SD, read-out: Cmax
  Cmax: 284 ± 48.2 ng/mL
[2]; [9]
  AUC(0-inf): 278 ± 48.9 ng·h/mL
  AUC(0-t): 269 ± 47.3 ng·h/mL
  Tmax: 10.2 ± 5.4 min
  half-life: 26.4 ± 1.8 min
[2]; both sexes, Sprague Dawley, rat, plasma, single intraperitoneal injection 0.36 mg/kg, total (male and female), mean ± SD, read-out: Cmax
  Cmax: 257 ± 42.4 ng/mL
[2]; intraperitoneal 0.36 mg/kg, male vs female
  gender difference in the absorption: no significant gender difference
[2]; intraperitoneal 0.36 mg/kg, plasma, non-compartmental WinNonlin 7.0
  Cl, observed: 22.2 mL/min/kg
[2]; single intraperitoneal injection 0.36 mg/kg, female, mean ± SD
  CL: 25.15 ± 2.95 mL/min/kg
[2]; single intraperitoneal injection 0.36 mg/kg, male, mean ± SD
  CL: 19.15 ± 1.98 mL/min/kg
[2]; single intraperitoneal injection 0.36 mg/kg, total (male and female), mean ± SD
  CL: 22.15 ± 3.98 mL/min/kg
Lon protease 1 (LONP1); previous research, read-out: binding affinity
  Kd: 0.312 µM
Lon protease 1 (LONP1); same value expressed in ng/mL
  binding affinity: 147 ng/mL
[3]
  therapeutic effect on cisplatin-induced acute kidney injury: significant therapeutic effect
LonP1
  LonP1 activation: new LonP1 activator
[4]
  effect on renal fibrosis induced by UUO or UIRI: dose-dependently alleviated renal fibrosis
[5]; [10]
  Measured Concentrations: 3.15 ± 0.11 ng/mL
  RE: 5.00%
[5]; [11]
  Measured Concentrations: 299 ± 10 ng/mL
  RE: −0.33%
[5]; [12]
  Measured Concentrations: 710 ± 27 ng/mL
  RE: −5.38%
[5]; [13]
  Measured Concentrations: 2.96 ± 0.10 ng/mL
  RE: −1.50%
[5]; [14]
  Measured Concentrations: 278 ± 3 ng/mL
  RE: −7.44%
[5]; [15]
  Measured Concentrations: 670 ± 15 ng/mL
  RE: −10.7%
[5]; [16]
  Measured Concentrations: 2.87 ± 0.29 ng/mL
  RE: −4.22%
[5]; [17]
  Measured Concentrations: 287 ± 20 ng/mL
  RE: −4.28%
[5]; [18]
  Measured Concentrations: 684 ± 18 ng/mL
  RE: −8.87%
[6]; Sprague Dawley, rat, most tissues (tissue homogenate), ip, most tissues, read-out: time of maximum concentration in most tissues
  Tmax: 1.98 min
[6]
  tissues with highest concentration: most concentrated in the intestine, stomach, liver, kidney and lung
[6]; most tissues
  time at which eliminated in most tissues: 8 h
